Legend:
RIP1 = target: T1, RIP1 (Homo sapiens, UniProt Q13546); experiment: Fluorescent polarization based binding assay (FP Binding Assay); conditions: His-GST-RipK1(1-375) 10 nM, fluorescent labeled ligand 5 nM
T1 construct: His-GST-RipK1(1-375) was purified from a Baculovirus expression system; His (N); GST (N); made in house
T1 sequence (Q13546 1-375): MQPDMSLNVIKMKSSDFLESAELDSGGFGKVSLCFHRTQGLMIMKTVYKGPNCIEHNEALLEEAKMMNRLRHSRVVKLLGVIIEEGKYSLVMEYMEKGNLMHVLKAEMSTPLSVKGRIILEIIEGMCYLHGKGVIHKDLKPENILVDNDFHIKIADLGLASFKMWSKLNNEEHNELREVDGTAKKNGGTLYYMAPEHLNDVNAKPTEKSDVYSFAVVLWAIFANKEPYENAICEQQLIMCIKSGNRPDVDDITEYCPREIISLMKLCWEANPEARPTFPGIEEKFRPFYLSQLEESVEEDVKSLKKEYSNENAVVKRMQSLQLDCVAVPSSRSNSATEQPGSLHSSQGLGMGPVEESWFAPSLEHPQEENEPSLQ

H-22 = experiment: Syngeneic subcutaneous tumor model H-22; assay type: in vivo, mouse; conditions: H-22 model; Example 6 40 mg/kg p.o. BID up to 21 days
Protocol: The efficacy of RIP1 inhibition was tested in 12 different murine (6-8 week old) syngeneic subcutaneous tumor models. RIP1 inhibition was tested as a single agent in all models, with anti-PD1 combination arms added to the five of the final models.
T and C are the mean tumor volume of the treated and control groups, respectively, on a given day. • 2) Tumor and plasma collection at study end for further investigation.
Cell Culture: The 12 syngeneic cell lines were maintained in vitro with different medium (indicated in Table 3) at 37° C. in an atmosphere of 5% CO2 in air. The tumor cells were routinely subcultured twice weekly. The cells in an exponential growth phase were harvested and counted for tumor inoculation.
Each mouse was inoculated subcutaneously with tumor cells in 0.1 mL of PBS for tumor development. The treatments were started when the mean tumor size reached approximately 80-120 mm^3 (around 100 mm^3).

FP Binding Assay (pIC50) (RIP1) | SMILES | Mean tumor growth inhibition (TGI) at model termination (H-22) [%]
8.0 | O=C(N[C@H]1CNc2cccc(F)c2NC1=O)c1nnc(Cc2ccccc2F)[nH]1 [Example 1, (S)—N-(9-Fluoro-2-oxo-2,3,4,5-tetrahydro-1H-benzo[b][1,4]diazepin-3-yl)-5-(2-fluorobenzyl)-4H-1,2,4-triazole-3-carboxamide] | –
7.4 | CN1C(=O)[C@@H](NC(=O)c2n[nH]c(Cc3ccccc3F)n2)CNc2ccccc21 [Example 3, (S)-5-(2-Fluorobenzyl)-N-(1-methyl-2-oxo-2,3,4,5-tetrahydro-1H-benzo[b][1,4]diazepin-3-yl)-1H-1,2,4-triazole-3-carboxamide] | –
– | N#Cc1cc(N2CCC(C(=O)N3N=CC[C@H]3c3cc(F)cc(F)c3)CC2)ncn1 [Example 6, (S)-6-(4-(5-(3,5-difluorophenyl)-4,5-dihydro-1H-pyrazole-1-carbonyl)piperidin-1-yl)pyrimidine-4-carbonitrile] | 19
